# Starred links: 1 amine or outer side, 2 acyl side, 3 side chain; linkers in the order of their positions; H or OH if unused. Positions of bridges follow the written chain, without caps; N, C: chain ends. Non-standard residues stand in square brackets, D forms with d. Residues, ends and D or L forms follow the SMILES beside them. X1 = O=C(O)CCCCCCCCCCCCCCCCCCC(=O)N[C@@H](CCCCNC(=O)COCCOCCNC(=O)COCCOCCNC(=O)CCC(=O)N(CCNC(=O)C[*:1])CCNC(=O)C[*:2])C(=O)O; NMeR = CN[C@@H](CCCNC(=N)N)C(=O)O; Hyp = O=C(O)[C@@H]1C[C@@H](O)CN1; hArg = N=C(N)NCCCC[C@H](N)C(=O)O; αMeF = C[C@](N)(Cc1ccccc1)C(=O)O; αMeL = CC(C)C[C@](C)(N)C(=O)O; αMeK = C[C@](N)(CCCCN)C(=O)O; Orn = NCCC[C@H](N)C(=O)O; Aib = CC(C)(N)C(=O)O
# Columns and labels:
# [1] = biological target: T1, AMY3R (Homo sapiens, UniProt P30988); assay: HTRF cAMP assay, AMY3R; format: cell-based; conditions: HEK293/pGM-CREB-L-Luc/AMY3R pool, read-out: IC50 of receptor AMY3R
# T1 construct: expressed in transfected cells
# T1 sequence (P30988 25-474): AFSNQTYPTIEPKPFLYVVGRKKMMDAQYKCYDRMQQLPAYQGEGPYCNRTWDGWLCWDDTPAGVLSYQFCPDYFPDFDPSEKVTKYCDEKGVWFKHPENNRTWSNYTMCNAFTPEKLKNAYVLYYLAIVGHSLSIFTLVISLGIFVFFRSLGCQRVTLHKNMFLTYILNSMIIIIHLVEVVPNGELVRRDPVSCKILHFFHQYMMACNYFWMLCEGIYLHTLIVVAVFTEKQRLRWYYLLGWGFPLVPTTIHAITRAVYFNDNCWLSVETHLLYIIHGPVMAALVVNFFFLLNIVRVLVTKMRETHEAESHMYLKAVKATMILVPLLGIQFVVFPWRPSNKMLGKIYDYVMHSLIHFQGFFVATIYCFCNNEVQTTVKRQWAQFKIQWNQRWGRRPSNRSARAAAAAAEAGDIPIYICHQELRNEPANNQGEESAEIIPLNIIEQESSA
# T1 sequence (O60896 24-148 partner): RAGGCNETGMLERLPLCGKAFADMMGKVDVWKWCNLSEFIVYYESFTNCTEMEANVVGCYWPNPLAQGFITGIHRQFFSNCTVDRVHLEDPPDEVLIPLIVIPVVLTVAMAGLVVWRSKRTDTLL
# From the text: (§1) 2. The polypeptide derivatives prepared in Example 1 and Example 2 of the present disclosure can bind to the target AMYR and CTR receptors on the cell membrane, activate the receptors and release cAMP. Therefore, the activity of the analyte can be determined by using an HTRF (homogeneous time-resolved fluorescence) method and using a cAMP detection kit. The specific steps were as follows:
# (§2) A stable transfected cell line of HEK293/pGM-CREB-L-Luc/AMY3R pool and HEK293/pGM-CREB-L-Luc/CTR pool was constructed. The polypeptide derivatives (i.e., AMY-001 to AMY-041) prepared in Examples 1 and 2 were subjected to 5-fold serial dilution from a maximum of 1000 nM to prepare a dilution series containing 8 to 11 concentration gradients. Cagrilintide and sCT were selected as positive controls for testing, and a dilution series was prepared according to the same method for testing. The test cell lines were selected and treated with cAMP-specific trypsin for digestion, and then suspended with 3 mL of serum-free DMEM medium by pipetting, and the cells were counted. 5 μL of IBMX (prepared with serum-free DMEM medium, 0.5 mM) and test cells (5 μL/7500 cells/well) were sequentially added to a 384-well plate, incubated under the conditions of 37° C., 5% CO2 for 30 minutes, then added with cAMP-d2 (5 μL, 1×) and Anti-cAMP-Cryptate (5 μL, 1×) and placed at room temperature for 1 hour. A HTRF value was determined by a chemiluminescence microplate reader, and the results were recorded. An activation curve was plotted using GraphPad Prism software to calculate an IC50 value of each polypeptide derivative. […] The IC50 values of some polypeptides were exemplarily shown in this example, see Table 3, FIG. 2 and FIG. 3 for details.
# [2] = biological target: T2, CTR (Homo sapiens, UniProt P30988); assay: HTRF cAMP assay, CTR; format: cell-based; conditions: HEK293/pGM-CREB-L-Luc/CTR pool, read-out: IC50 of receptor CTR
# T2 construct: expressed in transfected cells
# T2 sequence (P30988 25-474): T1 sequence (P30988 25-474)
# From the text: as §1, §2
EC50 [1] [nM],EC50 [2] [nM],Compound
0.0414,0.0894,"CC(=O)N[C@@H](C)C(=O)N[C@@H](CO)C(=O)N[C@@H](Cc1c[nH]cn1)C(=O)N[C@@H](CC(C)C)C(=O)N[C@@H](CO)C(=O)N[C@H](C(=O)N[C@@H](C)C(=O)N[C@H]1CSCC(=O)NCCN(C(=O)CCC(=O)NCCOCCOCC(=O)NCCOCCOCC(=O)NCCCC[C@H](NC(=O)CCCCCCCCCCCCCCCCCCC(=O)O)C(=O)O)CCNC(=O)CSC[C@@H](C(=O)N[C@@H](CC(C)C)C(=O)N[C@@H](Cc2c[nH]cn2)C(=O)N[C@@H](CCCN)C(=O)N[C@@H](CC(C)C)C(=O)NC(C)(C)C(=O)N[C@@H](CC(=O)O)C(=O)N[C@@](C)(Cc2ccccc2)C(=O)N2CCC[C@H]2C(=O)N[C@@H](CCCNC(=N)N)C(=O)N[C@H](C(=O)N[C@@H](CC(=O)O)C(=O)N[C@H](C(=O)NCC(=O)N[C@@H](C)C(=O)NCC(=O)N[C@@H](CO)C(=O)N2C[C@H](O)C[C@H]2C(N)=O)C(C)C)[C@@H](C)O)NC(=O)[C@H](C)NC(=O)[C@H](CO)NC(=O)[C@H](CC(C)C)NC(=O)[C@H](CCCNC(=N)N)NC(=O)CNC(=O)[C@H](CC(C)C)NC1=O)[C@@H](C)O [AMY-009, Ac-ASHLSTACLGRLSACLH-Orn-L-Aib-D-(αMeF)-PRTDVGAGS-Hyp-NH2] (Ac-ASHLSTACLGRLSACLH[Orn]L[Aib]D[αMeF]PRTDVGAGS[Hyp]-NH2; linker 8-15 via X1)"
0.0523,0.0415,"CC(=O)N[C@@H](C)C(=O)N[C@@H](CO)C(=O)N[C@@H](Cc1c[nH]cn1)C(=O)N[C@@](C)(CC(C)C)C(=O)N[C@@H](CO)C(=O)N[C@H](C(=O)N[C@@H](C)C(=O)N[C@H]1CSCC(=O)NCCN(C(=O)CCC(=O)NCCOCCOCC(=O)NCCOCCOCC(=O)NCCCC[C@H](NC(=O)CCCCCCCCCCCCCCCCCCC(=O)O)C(=O)O)CCNC(=O)CSC[C@@H](C(=O)N[C@@H](CC(C)C)C(=O)N[C@@H](Cc2c[nH]cn2)C(=O)N[C@@H](CCCCN)C(=O)N[C@@H](CC(C)C)C(=O)NC(C)(C)C(=O)N[C@@H](CC(=O)O)C(=O)N[C@@](C)(Cc2ccccc2)C(=O)N2CCC[C@H]2C(=O)N(C)[C@@H](CCCNC(=N)N)C(=O)N[C@H](C(=O)N[C@@H](CC(=O)O)C(=O)N[C@H](C(=O)NCC(=O)N[C@@H](C)C(=O)NCC(=O)N[C@@H](CO)C(=O)N2CCC[C@H]2C(N)=O)C(C)C)[C@@H](C)O)NC(=O)[C@H](C)NC(=O)[C@H](CO)NC(=O)[C@H](CC(C)C)NC(=O)[C@H](CCCNC(=N)N)NC(=O)CNC(=O)[C@H](CC(C)C)NC1=O)[C@@H](C)O [AMY-010, Ac-ASH-(aMeK)-STACLGRLSACLHKL-Aib-D-(αMeF)-P-(N-Me-R)-TDVGAGSP-NH2] (Ac-ASH[αMeL]STACLGRLSACLHKL[Aib]D[αMeF]P[NMeR]TDVGAGSP-NH2; linker 8-15 via X1)"
0.0133,0.0357,"CC(=O)N[C@@H](C)C(=O)N[C@@H](CO)C(=O)N[C@@H](Cc1c[nH]cn1)C(=O)N[C@@H](CC(C)C)C(=O)N[C@@H](CO)C(=O)N[C@H](C(=O)N[C@@H](C)C(=O)N[C@H]1CSCC(=O)NCCN(C(=O)CCC(=O)NCCOCCOCC(=O)NCCOCCOCC(=O)NCCCC[C@H](NC(=O)CCCCCCCCCCCCCCCCCCC(=O)O)C(=O)O)CCNC(=O)CSC[C@@H](C(=O)N[C@@H](CC(C)C)C(=O)N[C@@H](Cc2c[nH]cn2)C(=O)N[C@@](C)(CCCCN)C(=O)N[C@@H](CC(C)C)C(=O)NC(C)(C)C(=O)N[C@@H](CC(=O)O)C(=O)N[C@@H](Cc2ccc(O)cc2)C(=O)N2CCC[C@H]2C(=O)N(C)[C@@H](CCCNC(=N)N)C(=O)N[C@H](C(=O)N[C@@H](CC(=O)O)C(=O)N[C@H](C(=O)NCC(=O)N[C@@H](C)C(=O)NCC(=O)N[C@@H](CO)C(=O)N2CCC[C@H]2C(N)=O)C(C)C)[C@@H](C)O)NC(=O)[C@H](C)NC(=O)[C@H](CO)NC(=O)[C@H](CC(C)C)NC(=O)[C@H](CCCCNC(=N)N)NC(=O)CNC(=O)[C@H](CC(C)C)NC1=O)[C@@H](C)O [AMY-012, Ac-ASHLSTACLG-homoR-LSACLH-(αMeK)-L-Aib-DYP-(N-Me-R)-TDVGAGSP-NH2] (Ac-ASHLSTACLG[hArg]LSACLH[αMeK]L[Aib]DYP[NMeR]TDVGAGSP-NH2; linker 8-15 via X1)"

# Reference: patent US20260337245A1, “POLYPEPTIDE OR ANALOG THEREOF AND USE THEREOF” (Shenzhen Bay Laboratory, priority 2024, published 2026)
